A short description of the data set: physchem. From the text:
The active agent may be any active agent suitable to treat the desired condition. […] Examples include, but are not limited to, acetazolamide, dorzolamide HCl, timolol maleate, and ethacrynic acid sodium salt.

Values after ≈ are worked out from the molar mass of the structure shown. Structures can show the parent of a compound that is named as a salt.

What is called solubility is the concentration that dissolves in the medium under given conditions. A high value points to a readily soluble substance.

As to `C=C(CC)C(=O)c1ccc(OCC(=O)O)c(Cl)c1Cl` [ethacrynic acid sodium salt], the solubility class result is given as “high solubility”. The same compound gave a solubility (aqueous buffer) of over 1000 µg/mL.
In the same order, the values of `CC(C)(C)NC[C@H](O)COc1nsnc1N1CCOCC1` [timolol maleate] are “high solubility” and over 1000 µg/mL.
As for `CCNC(=O)CCC/C=C\C[C@@H]1[C@@H](/C=C/[C@@H](O)CCc2ccccc2)[C@H](O)C[C@@H]1O` [bimatoprost], the solubility class result was “low solubility”.
In turn, `O=C(O)CCC/C=C\C[C@@H]1[C@@H](CC[C@@H](O)CCc2ccccc2)[C@H](O)C[C@@H]1O` [latanoprost free acid] had a solubility of 800 µg/mL (≈ 2050 µM).
As to `CC(=O)Nc1nnc(S(N)(=O)=O)s1` [acetazolamide], the solubility (aqueous buffer) was over 1000 µg/mL.
Turning to brimonidine tartrate, the solubility (in water at pH 7.7) was determined as 600 µg/mL.
With `O=C(O)CCCCCC[C@@H]1[C@@H](CC[C@@H](O)c2cc3ccccc3s2)[C@H](O)C[C@@H]1O` [AR-102 free acid, 7-((1R,2R,3R,5S)-2-((R)-3-(benzo[b]thiophen-2-yl)-3-hydroxypropyl)-3,5-dihydroxycyclopentyl)heptanoic acid], the solubility class result is “moderate solubility”.
With `CC[C@H](C)C(=O)O[C@H]1C[C@@H](C)C=C2C=C[C@H](C)[C@H](CC[C@@H]3C[C@@H](O)CC(=O)O3)[C@H]21` [lovastatin], the solubility (aqueous buffer) is under 300 µg/mL.
In the case of `C[C@@H]1C[C@H]2[C@@H]3CCC4=CC(=O)C=C[C@]4(C)[C@@]3(F)[C@@H](O)C[C@]2(C)[C@@]1(O)C(=O)COP(=O)(O)O` [dexamethasone sodium phosphate], the solubility class result is listed as “high solubility”.
Consider `CCN[C@H]1C[C@H](C)S(=O)(=O)c2sc(S(N)(=O)=O)cc21` [dorzolamide HCl], for which the solubility class entry is listed as “high solubility”. Also, the solubility (aqueous buffer) is over 1000 µg/mL.
The compound `Brc1c(NC2=NCCN2)ccc2nccnc12` [brimonidine free base] came in with a solubility of 360 µg/mL (≈ 1230 µM).
`C[C@@H]1C[C@H]2[C@@H]3CCC4=CC(=O)C=C[C@]4(C)[C@@]3(F)[C@@H](O)C[C@]2(C)[C@@]1(O)C(=O)CO` [dexamethasone]: the solubility class result was “low solubility”. In addition, the solubility (aqueous buffer) is under 300 µg/mL.

The values above are taken from US20100158980A1, “DRUG DELIVERY DEVICES FOR DELIVERY OF THERAPEUTIC AGENTS” (priority 2008, published 2010).
